# Test results taken from ChEMBL document CHEMBL6109088 (J Med Chem, 2025).
# What was measured:
# [1] = in vivo; conditions: male, Wistar Hannover, rat, po, 10 mg/kg
# [2] = in vivo; conditions: male, Wistar Hannover, rat, po, 10 mg/kg; remark: listed apart in the source
# [3] = in vivo; conditions: male, Wistar Hannover, rat, po, 10 mg/kg; remark: listed apart in the source
# [4] = in vivo; conditions: male, Wistar Hannover, rat, plasma, iv, 1 mg/kg
# [5] = in vivo; conditions: male, Wistar Hannover, rat, iv, 1 mg/kg
# [6] = in vivo; conditions: male, Wistar Hannover, rat, iv, 1 mg/kg; remark: listed apart in the source
# [7] = in vivo; conditions: male, Wistar Hannover, rat, po, 10 mg/kg; remark: listed apart in the source
# [8] = in vivo; conditions: male, Wistar Hannover, rat, po, 10 mg/kg; remark: listed apart in the source
# [9] = in vivo; conditions: male, cynomolgus monkey, po, 10 mg/kg
# [10] = in vivo; conditions: male, cynomolgus monkey, po, 10 mg/kg; remark: listed apart in the source
# [11] = in vivo; conditions: male, cynomolgus monkey, iv, 1 mg/kg
# [12] = in vivo; conditions: male, cynomolgus monkey, po, 10 mg/kg; remark: listed apart in the source
# [13] = in vivo; conditions: male, cynomolgus monkey, plasma, iv, 1 mg/kg
# [14] = in vivo; conditions: male, cynomolgus monkey, iv, 1 mg/kg; remark: listed apart in the source
# [15] = in vivo; conditions: male, cynomolgus monkey, iv, 1 mg/kg; remark: listed apart in the source
# [16] = in vivo; conditions: male, cynomolgus monkey, po, 10 mg/kg; remark: listed apart in the source
# [17] = in vivo; conditions: male, Beagle, dog, po, 10 mg/kg
# [18] = in vivo; conditions: male, Beagle, dog, po, 10 mg/kg; remark: listed apart in the source
# [19] = in vivo; conditions: male, Beagle, dog, plasma, iv, 1 mg/kg
# [20] = in vivo; conditions: male, Beagle, dog, iv, 1 mg/kg
# [21] = in vivo; conditions: male, Beagle, dog, iv, 1 mg/kg; remark: listed apart in the source
# [22] = in vivo; conditions: male, Beagle, dog, po, 10 mg/kg; remark: listed apart in the source
# [23] = in vivo; conditions: male, Wistar Hannover, rat, iv, 1 mg/kg; remark: listed apart in the source
# [24] = in vivo; conditions: rat, po
# [25] = in vivo; conditions: male, Wistar Hannover, rat, iv, 1 mg/kg; remark: listed apart in the source
# [26] = in vitro; conditions: dog, MDCK
# [27] = in vitro; conditions: human, liver microsomes
# [28] = physchem; conditions: octanol/water
# [29] = system: SARS-CoV-2; assay: microbe, parasite or virus in culture; conditions: Severe acute respiratory syndrome coronavirus 2, USA-WA1/2020, Vero C1008
# [30] = in vivo; conditions: male, Wistar Hannover, rat, po, 10 mg/kg; remark: listed apart in the source
# [31] = in vivo; conditions: male, Wistar Hannover, rat, plasma, iv, 1 mg/kg; remark: listed apart in the source
# [32] = in vivo; conditions: male, Wistar Hannover, rat, iv, 1 mg/kg; remark: listed apart in the source
# [33] = in vivo; conditions: male, Wistar Hannover, rat, iv, 1 mg/kg; remark: listed apart in the source
# [34] = in vivo; conditions: male, Wistar Hannover, rat, po, 10 mg/kg; remark: listed apart in the source
# [35] = in vivo; conditions: male, Wistar Hannover, rat, po, 10 mg/kg; remark: listed apart in the source
# [36] = in vivo; conditions: male, Wistar Hannover, rat, po, 10 mg/kg; remark: listed apart in the source
# [37] = in vivo; conditions: male, Wistar Hannover, rat, po, 10 mg/kg; remark: listed apart in the source
# [38] = in vivo; conditions: male, Wistar Hannover, rat, po, 100 mg/kg
# [39] = in vivo; conditions: male, Wistar Hannover, rat, po, 100 mg/kg; remark: listed apart in the source
# [40] = in vivo; conditions: male, Wistar Hannover, rat, po, 100 mg/kg; remark: listed apart in the source
# [41] = in vivo; conditions: male, cynomolgus monkey, iv, 1 mg/kg; remark: listed apart in the source
# [42] = in vivo; conditions: male, cynomolgus monkey, plasma, iv, 1 mg/kg; remark: listed apart in the source
# [43] = in vivo; conditions: male, cynomolgus monkey, iv, 1 mg/kg; remark: listed apart in the source
# [44] = in vivo; conditions: male, cynomolgus monkey, iv, 1 mg/kg; remark: listed apart in the source
# [45] = in vivo; conditions: male, Wistar Hannover, rat, po, 10 mg/kg; remark: listed apart in the source
# [46] = in vivo; conditions: male, Wistar Hannover, rat, po, 10 mg/kg; remark: listed apart in the source
# [47] = in vivo; conditions: male, Wistar Hannover, rat, po, 10 mg/kg; remark: listed apart in the source
# [48] = in vivo; conditions: male, Wistar Hannover, rat, po, 100 mg/kg; remark: listed apart in the source
# [49] = in vivo; conditions: male, Wistar Hannover, rat, po, 100 mg/kg; remark: listed apart in the source
# [50] = in vivo; conditions: male, Wistar Hannover, rat, po, 100 mg/kg; remark: listed apart in the source
# [51] = in vivo; conditions: male, cynomolgus monkey, po, 10 mg/kg; remark: listed apart in the source
# [52] = in vivo; conditions: male, cynomolgus monkey, po, 10 mg/kg; remark: listed apart in the source
# [53] = in vivo; conditions: male, cynomolgus monkey, po, 10 mg/kg; remark: listed apart in the source
# [54] = in vivo; conditions: male, cynomolgus monkey, po, 100 mg/kg
# [55] = in vivo; conditions: male, cynomolgus monkey, po, 100 mg/kg; remark: listed apart in the source
# [56] = in vivo; conditions: male, cynomolgus monkey, po, 100 mg/kg; remark: listed apart in the source
# [57] = in vivo; conditions: male, cynomolgus monkey, po, 100 mg/kg; remark: listed apart in the source
# [58] = in vivo; conditions: male, cynomolgus monkey, po, 100 mg/kg; remark: listed apart in the source
# [59] = in vivo; conditions: male, cynomolgus monkey, po, 100 mg/kg; remark: listed apart in the source
structure (smiles),measurement,setting,value
CC(C)[C@H](NC(=O)C(F)(F)F)C(=O)N1C[C@H]2[C@@H]([C@H]1C(=O)N[C@@H](C[C@@H]1CCNC1=O)C(=O)c1nc3ccccc3s1)C2(C)C,Cmax at 4 h,[1],521 ng/mL
same,Tmax at 4 h,[2],0.67 h
same,AUC(0-inf) at 4 h,[3],2310 ng·h/mL
same,clearance at 4 h,[4],31 mL/min/kg
same,half-life at 4 h,[5],6.8 h
same,Vd at 4 h,[6],2.16 L/kg
same,half-life at 4 h,[7],3.39 h
same,bioavailability at 4 h,[8],54.3%
same,Cmax,[9],331 ng/mL
same,Tmax,[10],1.5 h
same,AUC(0-inf),[11],977 ng·h/mL
same,AUC(0-inf),[12],505 ng·h/mL
same,clearance,[13],26 mL/min/kg
same,Vd,[14],0.58 L/kg
same,half-life,[15],1.08 h
same,bioavailability,[16],7.85%
same,Cmax,[17],383 ng/mL
same,Tmax,[18],0.75 h
same,clearance,[19],20.7 mL/min/kg
same,Vd,[20],1.1 L/kg
same,half-life,[21],0.9 h
same,half-life,[22],4.43 h
same,AUC(0-inf) at 4 h,[23],632 ng·h/mL
same,bioavailability,[24],54%
same,AUC(0-inf) at 4 h,[25],538 ng·h/mL
same,Papp A→B,[26],13.1 ×10⁻⁶ cm/s
same,microsomal CLint,[27],30.3 µL/min/mg
same,logD,[28],3
same,EC50,[29],0.0853 µM
COc1cccc2[nH]c(C(=O)N3C[C@H]4[C@@H]([C@H]3C(=O)N[C@@H](C[C@@H]3CCNC3=O)C(=O)c3nc5ccccc5s3)C4(C)C)cc12,Papp A→B,[26],7.3 ×10⁻⁶ cm/s
same,microsomal CLint,[27],337 µL/min/mg
same,logD,[28],4.2
same,EC50,[29],5.59 µM
CC(C)[C@H](NS(C)(=O)=O)C(=O)N1C[C@H]2[C@@H]([C@H]1C(=O)N[C@@H](C[C@@H]1CCNC1=O)C(=O)c1nc3ccccc3s1)C2(C)C,bioavailability,[24],7%
same,Papp A→B,[26],1.7 ×10⁻⁶ cm/s
same,microsomal CLint,[27],70 µL/min/mg
same,logD,[28],2.4
same,EC50,[29],0.909 µM
COc1cccc2[nH]c(C(=O)N[C@@H](CC(C)C)C(=O)N[C@@H](C[C@@H]3CCNC3=O)C(=O)CO)cc12 [PF-00835231],bioavailability,[24],< 0.5%
same,Papp A→B,[26],< 0.207 ×10⁻⁶ cm/s
same,microsomal CLint,[27],7 µL/min/mg
same,logD,[28],1.7
CC(=O)N[C@H](C(=O)N1C[C@H]2[C@@H]([C@H]1C(=O)N[C@H](C#N)C[C@@H]1CCNC1=O)C2(C)C)C(C)(C)C,bioavailability,[24],2.8%
same,Papp A→B,[26],< 0.302 ×10⁻⁶ cm/s
same,microsomal CLint,[27],< 7 µL/min/mg
same,EC50,[29],5.31 µM
CC(C)[C@H](NC(=O)C(F)(F)F)C(=O)N1C[C@H]2[C@@H]([C@H]1C(=O)N[C@H](C#N)C[C@@H]1CCNC1=O)C2(C)C,bioavailability,[24],20%
same,Papp A→B,[26],0.721 ×10⁻⁶ cm/s
same,microsomal CLint,[27],7.9 µL/min/mg
same,EC50,[29],0.229 µM
CC(C)(C)[C@H](NC(=O)C(F)(F)F)C(=O)N1C[C@H]2[C@@H]([C@H]1C(=O)N[C@H](C#N)C[C@@H]1CCNC1=O)C2(C)C,AUC(0-inf) at 4 h,[30],3190 ng·h/mL
same,clearance at 4 h,[31],27.2 mL/min/kg
same,Vd at 4 h,[32],1.8 L/kg
same,half-life at 4 h,[33],5.1 h
same,Cmax at 4 h,[34],1290 ng/mL
same,Tmax at 4 h,[35],1.5 h
same,half-life at 4 h,[36],4 h
same,bioavailability at 4 h,[37],50%
same,Tmax at 4 h,[38],0.75 h
same,AUC(0-inf) at 4 h,[39],68300 ng·h/mL
same,bioavailability at 4 h,[40],108%
same,AUC(0-inf),[41],977 ng·h/mL
same,clearance,[42],17.1 mL/min/kg
same,Vd,[43],0.33 L/kg
same,half-life,[44],0.79 h
same,Cmax at 4 h,[45],1450 ng/mL
same,AUC(0-inf) at 4 h,[46],2170 ng·h/mL
same,half-life at 4 h,[47],2.8 h
same,Tmax at 4 h,[48],1.4 h
same,AUC(0-inf) at 4 h,[49],18000 ng·h/mL
same,bioavailability at 4 h,[50],29%
same,Cmax,[51],1450 ng/mL
same,AUC(0-t),[52],831 ng·h/mL
same,bioavailability,[53],8.5%
same,Cmax,[54],16300 ng/mL
same,Tmax,[55],1 h
same,AUC(0-inf),[56],37200 ng·h/mL
same,Cmax,[57],1560 ng/mL
same,Tmax,[58],0.5 h
same,AUC(0-inf),[59],4400 ng·h/mL
same,Papp A→B,[26],1.71 ×10⁻⁶ cm/s
same,microsomal CLint,[27],24.5 µL/min/mg
COc1cccc2[nH]c(C(=O)N[C@@H](CC(C)(C)C)C(=O)N[C@@H](C[C@@H]3CCNC3=O)C(=O)c3nc4ccccc4s3)cc12,bioavailability,[24],< 1%
same,Papp A→B,[26],4.3 ×10⁻⁶ cm/s
same,microsomal CLint,[27],350 µL/min/mg
same,logD,[28],4
same,EC50,[29],0.383 µM
CC(=O)N[C@H](C(=O)N1C[C@H]2[C@@H]([C@H]1C(=O)N[C@@H](C[C@@H]1CCNC1=O)C(=O)c1nc3ccccc3s1)C2(C)C)C(C)(C)C,Papp A→B,[26],0.7 ×10⁻⁶ cm/s
same,microsomal CLint,[27],27 µL/min/mg
same,logD,[28],2.4
same,EC50,[29],0.702 µM
